How the values were obtained:
[1] = target: T1, RBL-1 Cell 5-Lipoxygenase (Rattus norvegicus, UniProt P12527); assay: Procedure II: 5-lipoxygenase inhibition in disrupted RBL-1 cells (supernatant as enzyme source); format: biochemical
T1 construct: the supernatant was saved as the source of enzymes; endogenous in cells; host or cells: RBL-1 (rat basophilic leukemia cells), 10,000×g supernatant of homogenate
T1 sequence (P12527 1-673): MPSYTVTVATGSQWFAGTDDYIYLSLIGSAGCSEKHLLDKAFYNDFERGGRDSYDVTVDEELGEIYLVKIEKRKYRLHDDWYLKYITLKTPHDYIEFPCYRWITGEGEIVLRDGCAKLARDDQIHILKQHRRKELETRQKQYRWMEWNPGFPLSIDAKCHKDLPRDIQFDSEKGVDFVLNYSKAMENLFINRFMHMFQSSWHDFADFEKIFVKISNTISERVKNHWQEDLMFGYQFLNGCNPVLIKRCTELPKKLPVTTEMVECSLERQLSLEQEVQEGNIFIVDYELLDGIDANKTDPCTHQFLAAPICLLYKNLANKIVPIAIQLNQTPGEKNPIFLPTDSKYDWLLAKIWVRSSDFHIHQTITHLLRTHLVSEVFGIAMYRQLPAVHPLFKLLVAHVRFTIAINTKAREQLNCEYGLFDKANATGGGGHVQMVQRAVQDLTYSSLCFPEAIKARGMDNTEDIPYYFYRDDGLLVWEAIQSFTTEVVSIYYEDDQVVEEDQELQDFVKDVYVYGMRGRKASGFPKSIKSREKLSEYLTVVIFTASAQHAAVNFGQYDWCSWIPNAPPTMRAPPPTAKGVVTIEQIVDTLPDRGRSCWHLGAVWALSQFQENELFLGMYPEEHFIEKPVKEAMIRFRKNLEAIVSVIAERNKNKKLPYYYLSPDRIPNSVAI
Experimental: RBL-1 Cell 5-Lipoxygenase and Cyclooxygenase
Rat basophilic leukemia cells (RBL-1; 5×10^7 viable cells/mL) were disrupted by homogenization on ice (four 20 sec bursts) with a Brinkman polytron. Complete cell breakage was verified microscopically. The homogenate was then centrifuged at 10,000×g for 48 minutes at 4° C. The pellet was discarded and the supernatant was saved as the source of enzymes. The supernatant was pre-incubated for five minutes at 37° C. in the presence of 2 mM of CaCl2 and compound or vehicle (1% DMSO). The conversion of AA into 5-LO products was initiated by adding 10 μL (50 μCi) of 1-^14 C-AA to each tube and incubated at 37° C. for 20 minutes. The reaction was stopped by adjusting the pH of each sample to 3 to 3.5 with 2M formic acid. Samples were extracted with three volumes of chloroform to isolate the products of 5-LO formed during the reaction. Fractions were dried under nitrogen, then resuspended in 40 μL of chloroform and spotted onto silica gel HL plates. The plates were developed in A-9 solvent. The dried plates were analyzed using a Bioscan Imaging TLC scanner to determine the percentage of radiolabelled AA converted to 5-HETE in each sample.
(§1) In the following tables, the superscripts indicate the number of experiments and, unless otherwise stated, the dose at which % inhibition is reported is 3 MPK.

CO in intact RBL-1 cells = target: T2, CO in intact RBL-1 cells (Rattus norvegicus, UniProt Q63921); assay: Procedure III: inhibition of CO in intact RBL-1 cells; format: cell-based
T2 construct: 5-LO and CO in intact RBL-1 cells; endogenous in cells; host or cells: RBL-1 (rat basophilic leukemia cells), intact
T2 sequence (Q63921 27-602): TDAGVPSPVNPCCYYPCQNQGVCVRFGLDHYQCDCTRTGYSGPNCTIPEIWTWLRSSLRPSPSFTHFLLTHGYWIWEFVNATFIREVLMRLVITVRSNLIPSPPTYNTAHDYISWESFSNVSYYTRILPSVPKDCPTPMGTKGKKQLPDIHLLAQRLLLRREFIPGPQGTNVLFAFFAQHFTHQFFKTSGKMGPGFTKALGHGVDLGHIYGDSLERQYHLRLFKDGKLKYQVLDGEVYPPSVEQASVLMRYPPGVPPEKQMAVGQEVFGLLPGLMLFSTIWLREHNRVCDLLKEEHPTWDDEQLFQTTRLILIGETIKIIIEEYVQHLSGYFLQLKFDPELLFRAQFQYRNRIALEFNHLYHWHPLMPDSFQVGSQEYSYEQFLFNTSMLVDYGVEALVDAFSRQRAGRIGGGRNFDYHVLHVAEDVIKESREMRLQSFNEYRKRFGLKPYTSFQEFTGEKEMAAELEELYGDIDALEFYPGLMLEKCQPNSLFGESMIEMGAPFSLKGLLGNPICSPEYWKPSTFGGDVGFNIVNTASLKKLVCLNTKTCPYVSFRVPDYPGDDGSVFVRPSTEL
Experimental: The ability to inhibit 5-LO and CO in intact RBL-1 cells was also evaluated. RBL-1 cells were maintained in culture in minimal essential medium (Bio*Whittaker, Walkersville, Md.), containing 12.5% fetal calf serum, 10 mg/mL streptomycin, 10 I.U./mL penicillin G, […] gentamycin and 2 mM L-glutamine (Bio*Whittaker, Walkersville, Md.). Cells were collected by centrifugation, washed once in HBSS, and resuspended at a concentration of 1×10^5 cells/mL. Cells were incubated in the presence of vehicle or drug then centrifuged at 800×g for 10 minutes at 4° C. The supernatant was removed by aspiration and the cells were resuspended in 0.5 mL of HBSS. The reaction was started by the addition of 20 μg/mL of calcium ionophore A-23187 (mixed calcium and magnesium salts, Calbiochem, La Jolla, Calif.) and allowed to proceed for 15 minutes, then stopped by plunging the tubes into a slush ice bath. The conversion of AA to 5-LO products was initiated by the addition of 10 μL (50 uCi) of 1-^14 C-AA. Products were isolated by acidification and extraction, followed by thin layer chromatography analysis as described above. Radioactive areas corresponding to authentic 5-LO and CO products were quantitated by the Bioscan 2000 Imaging System.
as §1

- % INHIBITION 5-LO (Procedure II) [1]: 80%
- IC50 ([1]; read-out: IC50 5-LO (Procedure II)): 0.03 µM
- IC50 (CO in intact RBL-1 cells): 7 µM
Structure (SMILES): COc1ccc(-n2nc(CCCOC(=O)N(O)C(C)C)c(Br)c2-c2ccc(Cl)cc2)cc1 [3-G]
